Earlier results on 1 molecule are cited in US20140147549A1, “CARBOHYDRATE BAR” (NESTEC S.A., priority 2008, published 2014).

For this data set the following is noted: previous research data, single carbohydrate source alone.

`O=C(CO)[C@@H](O)[C@H](O)[C@H](O)CO` [fructose]: the “peak exogenous carbohydrate oxidation, single carbohydrate source” value was roughly 0.4 g/min.
